How the values were obtained:
[1] = system: Human immunodeficiency virus; experiment: Concentration required to inhibit 50% of HIV (human immunodeficiency virus) replication; format: functional, organism-based; settings: Human immunodeficiency virus 1
[2] = system: H9; experiment: Concentration required to inhibit 50% growth of uninfected H9 cells; format: functional, cell-based; settings: Homo sapiens
[3] = Therapeutic index expressed as ratio of IC50 for 50% growth inhibition to EC50 for 50% replication inhibition; format: cell-based; settings: human, H9 cells; read-out: TI

SMILES	EC50 [1]	IC50 [2]	selectivity ratio [3]
CCCC1(C)Oc2ccc3c(C)cc(=O)oc3c2[C@@H](OC(=O)C23CCC(C)(C(=O)O2)C3(C)C)[C@H]1OC(=O)C12CCC(C)(C(=O)O1)C2(C)C (stereo partly specified)	6.4 µM	> 37.6 µM	> 5.9
CC1(C)Oc2ccc3ccc(=O)oc3c2[C@@H](OC(=O)C23CCC(C)(C(=O)O2)C3(C)C)[C@H]1OC(=O)C12CCC(C)(C(=O)O1)C2(C)C (stereo partly specified)	0.049 µM	> 16.1 µM	> 328
CCC1(C)Oc2ccc3c(C)cc(=O)oc3c2[C@@H](OC(=O)C23CCC(C)(C(=O)O2)C3(C)C)[C@H]1OC(=O)C12CCC(C)(C(=O)O1)C2(C)C (stereo partly specified)	0.22 µM	> 38.4 µM	> 175
Cc1cc(=O)oc2c3c(ccc12)OC[C@H](OC(=O)C12CCC(C)(C(=O)O1)C2(C)C)[C@@H]3OC(=O)C12CCC(C)(C(=O)O1)C2(C)C (stereo partly specified)	6.9 µM	> 41.1 µM	> 6
CCC1(CC)Oc2ccc3c(C)cc(=O)oc3c2[C@@H](OC(=O)C23CCC(C)(C(=O)O2)C3(C)C)[C@H]1OC(=O)C12CCC(C)(C(=O)O1)C2(C)C (stereo partly specified)	2.84 µM	> 37.6 µM	> 13.2
Cc1cc(=O)oc2c3c(ccc12)OC(C)(C)[C@H](OC(=O)C12CCC(C)(C(=O)O1)C2(C)C)[C@@H]3OC(=O)C12CCC(C)(C(=O)O1)C2(C)C (stereo partly specified)	0.0059 µM	> 38.9 µM	> 6600
Cc1cn([C@H]2C[C@H](N=[N+]=[N-])[C@@H](CO)O2)c(=O)[nH]c1=O [ZIDOVUDINE]	0.04 µM	1870 µM	39000

Reference: ChEMBL document CHEMBL1138701, “Anti-AIDS agents. Part 62: anti-HIV activity of 2'-substituted 4-methyl-3',4'-di-O-(-)-camphanoyl-(+)-cis-khellactone (4-methyl DCK) analogs” (Bioorg Med Chem Lett, 2004)
